# Laboratory results taken from PMC6150025, “Novel Mixed-Type Inhibitors of Protein Tyrosine Phosphatase 1B. Kinetic and Computational Studies” (Molecules : A Journal of Synthetic Chemistry and Natural …, 2017).
# Target: T1, PTP1B (Homo sapiens, UniProt P18031)
# T1 construct: encodes for PTP1B (residues 1–321); inferred from the pET28A vector, NdeI/BamHI cloning and Ni-agarose purification) (N); made in house; host or cells: E. coli BLR
# T1 sequence (P18031 1-321): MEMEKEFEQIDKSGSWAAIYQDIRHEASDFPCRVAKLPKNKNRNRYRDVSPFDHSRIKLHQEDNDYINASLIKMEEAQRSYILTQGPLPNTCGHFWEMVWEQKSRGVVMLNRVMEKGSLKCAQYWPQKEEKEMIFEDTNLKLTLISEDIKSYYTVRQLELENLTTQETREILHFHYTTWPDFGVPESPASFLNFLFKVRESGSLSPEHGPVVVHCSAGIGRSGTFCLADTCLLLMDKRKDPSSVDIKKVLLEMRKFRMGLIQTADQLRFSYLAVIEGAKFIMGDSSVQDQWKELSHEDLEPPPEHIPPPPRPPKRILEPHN
# Assay: PTP1B enzymatic inhibition assay (pNPP substrate)
# Type: biochemical
# Conditions: for Ki: Lineweaver-Burk analysis, mixed type model; for Inhibition Type: Lineweaver-Burk plots; for IC50: curves at different concentration of each compound; for Vmax / Km: from fit of the kinetic data for each inhibitor; for α: mixed type inhibition model; for Km: pNPP; for % Inhibition: Table S1, values marked a: tested at 100 µM due to solubility problems
# Experimental: The PTP1B activity was measured based on the Goldstein method. The assay was performed with a final reaction volume of 500 µL in HEPES buffer (50 mM HEPES, 1mM DTT, 2 mM EDTA and 150 mM NaCl, pH 7.0), DMSO (10%) and p-nitrophenol phosphate (pNPP) as substrate (50 mM), the reaction was started with the PTP1B (1.5 µg/mL). After 30 min of incubation at 37 °C, the reaction was stopped by the addition of 500 µL of NaOH 5N reading the absorbance at 405 nm. The number of hydrolyzed moles of pNPP was determined using the molar extinction coefficient of the product pNP (18,500 M^−1 cm^−1).
# Inhibition assays were performed under the above described conditions, adding to the reaction each one of the molecules at a final concentration of 200 µM. The concentration that inhibits 50% (IC50) of the PTP1B activity was determined through curves at different concentration of each compound, adjusting the data to the equation reported elsewhere. The inhibition type and constant were obtained by the measurement of the initial velocities of hydrolysis varying the substrate concentration in a range of 2–30 µM, in absence or presence of fixed concentrations of each inhibitor. For compound 1 the concentrations used were 3, 6, 10 and 20 µM; in the case of compound 2 were 2, 4, 6, 8, and 10 µM; and for compound 3 were 20, 50, 70 and 90 µM. The experimental data were analyzed through the Lineweaver-Burk plot using the software Sigma Plot V12.3 (Systat Software, Inc., San Jose, CA, USA).
# [1] = 200 µM compound, pNPP 50 mM, 30 min, 37 °C
compound,measurement,setting,value
"Cc1ccc(S(=O)(=O)CCSc2n[nH]c(=O)n2-c2ccc(OCc3ccccc3)cc2)cc1 [4-[4-(benzyloxy)phenyl]-5-({2-[(4-methylphenyl)sulfonyl]ethyl}sulfanyl)-2,4-dihydro-3H-1,2,4-triazol-3-one]",% Inhibition (200 µM),"Table S1, 200 µM compound",42%
Cn1c(SCCn2ccnc2)nc2cc(Cl)ccc21 [5-chloro-2-{[2-(1H-imidazol-1-yl)ethyl]sulfanyl}-1-methyl-1H-benzimidazole],% Inhibition (200 µM),"Table S1, 200 µM compound",42%
CSc1nc2cc(C(=O)O)ccc2n1C [1-methyl-2-(methylsulfanyl)-1H-benzimidazole-5-carboxylic acid],% Inhibition (200 µM),"Table S1, 200 µM compound",33%
"O=C(CSc1nc2cc(Oc3cccc4ccccc34)c(Cl)cc2[nH]1)Nc1nccs1 [Compound 2, 2-[6-Chloro-5-(1-naphthalyloxy)-1H-benzimidazol-2-yl]thio-N-(thiazol-2-yl)acetamide]",inhibition at 200 µM,[1],99%
same,Ki,,4.2 µM
same,Inhibition Type,,Mixed
same,IC50,,8.4 µM
same,Vmax,,16 µmol/min/mg
same,α,,2.9
same,Km,,6.8 mM
"O=C(CSc1nnnn1-c1ccc(O)cc1)c1ccc2c(c1)OCO2 [Compound 4, 1-(1,3-benzodioxol-5-yl)-2-{[1-(4-hydroxyphenyl)-1H-1,2,3,4-tetraazol-5-yl]sulfanyl}-1-ethanone]",inhibition at 200 µM,[1],88%
"CSc1nc2cc(Cl)c(C(=O)Nc3nc4cc(Oc5cccc(Cl)c5Cl)c(Cl)cc4[nH]3)cc2n1C [Compound 1, 5-Chloro-N-[6-chloro-5-(2,3-dichlorophenoxy)-1H-benzimidazol-2-yl]-1-methyl-2-(methylthio)-1H-benz-imidazole-6-carboxamide]",inhibition at 200 µM,[1],100%
same,Ki,,5.2 µM
same,Inhibition Type,,Mixed
same,IC50,,7.5 µM
same,Vmax,,8.8 µmol/min/mg
same,α,,1.4
same,Km,,6.7 mM
"COC(=O)c1c(Cl)ccc2nc(Cc3ccc([N+](=O)[O-])cc3)sc12 [methyl 6-chloro-2-[(4-nitrophenyl)methyl]-1,3-benzothiazole-7-carboxylate]",% Inhibition (200 µM),"Table S1, 200 µM compound",56%
"CCCCCc1ccc(S(=O)(=O)Nc2ncccc2OCc2cc(F)cc(F)c2)cc1 [Compound 8, N-{3-[(3,5-difluorobenzyl)oxy]pyridin-2-yl}-4-pentylbenzenesulfonamide]",inhibition at 200 µM,[1],74%
same,inhibition at 200 µM,"Table S1, 200 µM compound",64%
N#Cc1ccc(-c2c(NC(=O)NS(=O)(=O)c3ccccc3Cl)oc(-c3ccco3)c2C#N)cc1 [2-[({[(2-chlorophenyl)sulphonyl]amino}carbonyl)amino]-4-cyano-3-(4-cyanophenyl)-5-(2-furyl)furan],% Inhibition (200 µM),"Table S1, 200 µM compound",64%
"O=C(CSc1nc2cc(Oc3cccc4ccccc34)c(Cl)cc2[nH]1)Nc1ncc([N+](=O)[O-])s1 [2-({6-chloro-5-[(naphthalen-1-yl)oxy]-1H-benzimidazol-2-yl}sulfanyl)-N-(5-nitro-1,3-thiazol-2-yl)acetamide]",% Inhibition (200 µM),"Table S1, 200 µM compound",63%
"O=C(CSc1nnc(-c2cc(OCC(F)(F)F)ccc2OCC(F)(F)F)o1)c1ccccc1 [2-({5-[2,5-di(2,2,2-trifluoroethoxy)phenyl]-1,3,4-oxadiazol-2-yl}thio)-1-phenylethan-1-one]",% Inhibition (200 µM),"Table S1, 200 µM compound",64%
CSc1nc2cc(C(=O)N/N=C/c3ccc([N+](=O)[O-])o3)ccc2[nH]1 [2-(methylsulfanyl)-N'-[(E)-(5-nitrofuran-2-yl)methylidene]-1H-benzimidazole-5-carbohydrazide],% Inhibition,,50%
"CCCc1cc(=O)oc2cc(OC(C)C(=O)NNS(=O)(=O)c3cccc(C(F)(F)F)c3)ccc12 (stereo not shown) [Compound 6, N′1-{2-[(2-oxo-4-propyl-2H-chromen-7-yl)oxy]propanoyl}-3-(trifluoromethyl)benzene-1-sulfonohydrazide]",inhibition at 200 µM,[1],84%
Cn1c(SCCn2ccnc2)nc2ccc(Cl)cc21 [6-chloro-2-{[2-(1H-imidazol-1-yl)ethyl]sulfanyl}-1-methyl-1H-benzimidazole],% Inhibition (200 µM),"Table S1, 200 µM compound",32%
O=C(Nc1ccc(COc2ccccc2)cc1)Oc1ccccc1N1CCOCC1 [2-morpholinophenyl N-[4-(phenoxymethyl)phenyl]carbamate],% Inhibition (200 µM),"Table S1, 200 µM compound",63%
"CC1C(=NO)CC(c2ccc([N+](=O)[O-])cc2)NC1c1ccc([N+](=O)[O-])cc1 (stereo not shown) [3-methyl-2,6-bis(4-nitrophenyl)tetrahydropyridin-4(1H)-one oxime]",% Inhibition (200 µM),"Table S1, 200 µM compound",54%
Cc1nc2cc(C(=O)N/N=C/c3ccc([N+](=O)[O-])o3)ccc2[nH]1 [2-methyl-N'-[(E)-(5-nitrofuran-2-yl)methylidene]-1H-benzimidazole-5-carbohydrazide],% Inhibition,,54%
O=C(O)C=CC(=O)Nc1ccc(N2CCCCCC2)c(NC(=O)C=CC(=O)O)c1 [4-{2-(1-azepanyl)-5-[(4-hydroxy-4-oxo-2-butenoyl)amino]anilino}-4-oxo-2-butenoic acid],% Inhibition (200 µM),"Table S1, 200 µM compound",58%
"COc1cc2nc(SCC(=O)Nc3ccc(F)c(Cl)c3)n(-c3ccccc3)c(=O)c2cc1OC [Compound 7, N-(3-chloro-4-fluorophenyl)-2-[(6,7-dimethoxy-4-oxo-3-phenyl-3,4-dihydro-2-quinazolinyl)sulfanyl]acetamide]",inhibition at 200 µM,[1],80%
"O=C(O)c1csc(-c2ccc(C(F)(F)F)cc2)n1 [2-[4-(trifluoromethyl)phenyl]-1,3-thiazole-4-carboxylic acid]",% Inhibition (200 µM),"Table S1, 200 µM compound",34%
"COC(=O)c1cccc2nc(Cc3ccc([N+](=O)[O-])cc3)sc12 [methyl 2-[(4-nitrophenyl)methyl]-1,3-benzothiazole-7-carboxylate]",% Inhibition (200 µM),"Table S1, 200 µM compound",64%
"O=S(=O)(c1ccc(NC(=S)Nc2ccc3c(c2)OCO3)cc1)N1CCCCC1 [N-(1,3-benzodioxol-5-yl)-N'-[4-(piperidinosulfonyl)phenyl]thiourea]",% Inhibition (200 µM),"Table S1, 200 µM compound",32%
"CN(C)S(=O)(=O)Oc1ccc(-c2noc(-c3ccc(Oc4cc(Cl)cc(Cl)c4)o3)n2)cc1 [Compound 5, 4-{5-[5-(3,5-dichlorophenoxy)-2-furyl]-1,2,4-oxadiazol-3-yl}phenyl-N,N-dimethylsulfamate]",inhibition at 200 µM,[1],85%
"O=C(O)c1ccc2[nH]c3c(c2c1)CCCC3 [6,7,8,9-Tetrahydro-5h-carbazole-3-carboxylic acid]",% Inhibition (200 µM),"Table S1, 200 µM compound",32%
"COC(=O)c1cc2nc(SCC(=O)Nc3ncc([N+](=O)[O-])s3)[nH]c2cc1Cl [methyl 6-chloro-2-({2-[(5-nitro-1,3-thiazol-2-yl)amino]-2-oxoethyl}sulfanyl)-1H-benzimidazole-5-carboxylate]",% Inhibition (200 µM),"Table S1, 200 µM compound",63%
C[S+]([O-])c1nc2cc(Cl)c(Oc3cccc4ccccc34)cc2[nH]1 (stereo not shown) [Compound 10],inhibition at 200 µM,[1],65%
"Cn1c(SCC(=O)Nc2nccs2)nc2cc(Oc3cccc4ccccc34)c(Cl)cc21 [2-({6-chloro-1-methyl-5-[(naphthalen-1-yl)oxy]-1H-benzimidazol-2-yl}sulfanyl)-N-(1,3-thiazol-2-yl)acetamide]",% Inhibition (200 µM),"Table S1, 200 µM compound",54%
"Cn1c(SCC(=O)Nc2nccs2)nc2cc(Cl)c(Oc3cccc4ccccc34)cc21 [2-({5-chloro-1-methyl-6-[(naphthalen-1-yl)oxy]-1H-benzimidazol-2-yl}sulfanyl)-N-(1,3-thiazol-2-yl)acetamide]",% Inhibition,,63%
"CN(C)S(=O)(=O)Oc1ccc(-c2noc(-c3ccc(OC(F)(F)F)cc3)n2)cc1 [N,N-dimethyl(4-{5-[4-(trifluoromethoxy)phenyl]-1,2,4-oxadiazol-3-yl}phenyl)sulfamate]",% Inhibition (200 µM),"Table S1, 200 µM compound",38%
O=C(O)c1ccccc1N1CCOCC1 [2-morpholinobenzoic acid],inhibition at 200 µM,"Table S1, 200 µM compound",37%
